Reference: patent publication US20130065818A1, “Arylamide Compounds And Compositions And Uses Thereof” (POLYMEDIX, priority 2006, published 2013)
Read-outs that look alike come from different tables or passages of the source.

Experiments:
Serratia marcescens = assay: MIC, 25 ocular isolates, broth microdilution (Example 8); format: cell-based
Procedure: (§1) • Mueller-Hinton Broth in tubes was inoculated with 25 ocular isolates of Staphylococcus aureus fluoroquinolone-susceptible, Staphylococcus aureus fluoroquinolone-resistant, Staphylococcus epidermidis (Coagulase-negative Staphylococcus) fluoroquinolone-susceptible, Staphylococcus epidermidis (Coagulase-negative Staphylococcus) fluoroquinolone-resistant, Pseudomonas aeruginosa and Serratia marcescens, plus two controls (Staphylococcus aureus and E. coli) and incubated at 37° C. overnight on a shaker set at 250 rpm.
(§2) On the day of testing, a 640 μg/ml (1280 μg/ml for Serratia marcescens and Pseudomonas aeruginosa) concentration was prepared from a 1% stock solution in 0.01% acetic acid, 0.2% BSA in polypropylene tubes.
(§3) Serial doubling dilutions in 0.01% acetic acid, 0.2% BSA in 96 well polypropylene plates, which are used as reservoirs for the inoculation of the test plates, were carried out to obtain serial dilutions of test agents at 10 times the required test concentrations: 640, 320, 160, 80, 40, 20, 10, 5, 2.5, 1.25, and 0.625 μg/ml (1280, 640, 320, 160, 80, 40, 20, 10, 5, 2.5, and 1.25 μg/ml for Serratia marcescens and Pseudomonas aeruginosa).
(§4) Ten μl of diluted 10×test agents was added to each well of one row of the 96 well polypropylene plates from column 2 to column 12 (column 1 is a control for bacteria alone, with no peptide). Test agent concentrations in columns 2-12 were as follows: 64, 32, 16, 8, 4, 2, 1, 0.5, 0.25, 0.125, and 0.0625 μg/ml (128, 64, 32, 16, 8, 4, 2, 1, 0.5, 0.25, and 0.125 μg/ml for Serratia marcescens and Pseudomonas aeruginosa). The same peptide was in each of the 8 rows. One plate contained dilutions of one test agent and 8 bacterial isolates.
(§5) On the day of testing, the overnight bacterial broth cultures of Staphylococcus aureus fluoroquinolone-susceptible, Staphylococcus aureus fluoroquinolone-resistant, Staphylococcus epidermidis (Coagulase-negative Staphylococcus) fluoroquinolone-susceptible, Staphylococcus epidermidis (Coagulase-negative Staphylococcus) fluoroquinolone-resistant, Serratia marcescens, and Pseudomonas aeruginosa, plus two controls (Staphylococcus aureus and E. coli) were diluted in 5 ml of trypticase soy broth to yield turbidity equal to a 0.5 McFarland standard. The final inoculum for MIC testing for Staphylococcus aureus fluoroquinolone-susceptible, Staphylococcus aureus fluoroquinolone-resistant, Staphylococcus epidermidis (Coagulase-negative Staphylococcus) fluoroquinolone-susceptible, Staphylococcus epidermidis (Coagulase-negative Staphylococcus) fluoroquinolone-resistant, Serratia marcescens, and Pseudomonas aeruginosa was achieved by placing 0.05 ml of the turbidity adjusted sample to 5 ml of Mueller-Hinton broth.
(§6) Ninety μl of the bacterial suspensions was dispensed in each well from column 1 to column 12. Each bacterial isolate was placed in one row of a 96 well polypropylene plate containing the test agents. The plates were placed on shaker at 15 minutes at room temperature, and then incubated at 37° C. overnight. MICs were determined visually as the lowest concentration of drug that inhibits visible bacterial growth.

Pseudomonas aeruginosa = assay: as above; format: cell-based
Procedure: as §1, §2, §3, §4, §5, §6

[1] = 25 isolates, Summary of Results, >128 was Replaced with 256

N=C(N)NCCCCC(=O)Nc1cc(C(F)(F)F)cc(NC(=O)c2cnc(C(=O)Nc3cc(C(F)(F)F)cc(NC(=O)CCCCNC(=N)N)c3SCCN)cn2)c1SCCN [Oligomer 5]
4 µg/mL: MIC (Pseudomonas aeruginosa; Pseudomonas aeruginosa, isolate 8—K1636, read-out: MIC)
32 µg/mL: MIC (Pseudomonas aeruginosa; Pseudomonas aeruginosa, isolate 1—K1673, read-out: MIC) | MIC (Pseudomonas aeruginosa; Pseudomonas aeruginosa, isolate 18—K1613, read-out: MIC) | MIC (Pseudomonas aeruginosa; Pseudomonas aeruginosa, isolate 23—K1580, read-out: MIC)
64 µg/mL: MIC (Serratia marcescens; Serratia marcescens, isolate 17—K1351, read-out: MIC) | MIC50 (Pseudomonas aeruginosa; 25 isolates, Row 13) | MIC (Pseudomonas aeruginosa; Pseudomonas aeruginosa, 25 ocular isolates, read-out: Median MIC) | MIC (Pseudomonas aeruginosa; Pseudomonas aeruginosa, isolate 2—K1668, read-out: MIC) | MIC (Pseudomonas aeruginosa; Pseudomonas aeruginosa, isolate 3—K1662, read-out: MIC) | MIC (Pseudomonas aeruginosa; Pseudomonas aeruginosa, isolate 4—K1657, read-out: MIC) | MIC (Pseudomonas aeruginosa; Pseudomonas aeruginosa, isolate 6—K1649, read-out: MIC) | MIC (Pseudomonas aeruginosa; Pseudomonas aeruginosa, isolate 10—K1633, read-out: MIC) | MIC (Pseudomonas aeruginosa; Pseudomonas aeruginosa, isolate 11—K1632, read-out: MIC) | MIC (Pseudomonas aeruginosa; Pseudomonas aeruginosa, isolate 12—K1631, read-out: MIC) | MIC (Pseudomonas aeruginosa; Pseudomonas aeruginosa, isolate 13—K1629, read-out: MIC) | MIC (Pseudomonas aeruginosa; Pseudomonas aeruginosa, isolate 14—K1627, read-out: MIC) | MIC (Pseudomonas aeruginosa; Pseudomonas aeruginosa, isolate 16—K1625, read-out: MIC) | MIC (Pseudomonas aeruginosa; Pseudomonas aeruginosa, isolate 20—K1594, read-out: MIC) | MIC (Pseudomonas aeruginosa; Pseudomonas aeruginosa, isolate 24—K1577, read-out: MIC) | MIC (Pseudomonas aeruginosa; Pseudomonas aeruginosa, n=25 per group, read-out: Median MIC) | MIC50 (Pseudomonas aeruginosa; Pseudomonas aeruginosa, 25 isolates, Summary of Results, read-out: MIC50) | MIC (Pseudomonas aeruginosa; Pseudomonas aeruginosa, 25 isolates, Summary of Results, read-out: Median MIC) | MIC50 (Pseudomonas aeruginosa; n=25 per group)
> 128 µg/mL: MIC (Serratia marcescens; Serratia marcescens, isolate 1—K1681, read-out: MIC) | MIC (Serratia marcescens; Serratia marcescens, isolate 2—K1674, read-out: MIC) | MIC (Serratia marcescens; Serratia marcescens, isolate 3—K1558, read-out: MIC) | MIC (Serratia marcescens; Serratia marcescens, isolate 4—K1538, read-out: MIC) | MIC (Serratia marcescens; Serratia marcescens, isolate 5—K1503, read-out: MIC) | MIC (Serratia marcescens; Serratia marcescens, isolate 6—K1216, read-out: MIC) | MIC (Serratia marcescens; Serratia marcescens, isolate 7—K1496, read-out: MIC) | MIC (Serratia marcescens; Serratia marcescens, isolate 8—K1481, read-out: MIC) | MIC (Serratia marcescens; Serratia marcescens, isolate 9—K1470, read-out: MIC) | MIC (Serratia marcescens; Serratia marcescens, isolate 10—K1468, read-out: MIC) | MIC (Serratia marcescens; Serratia marcescens, isolate 11—K1467, read-out: MIC) | MIC (Serratia marcescens; Serratia marcescens, isolate 12—K1462, read-out: MIC) | MIC (Serratia marcescens; Serratia marcescens, isolate 14—K1413, read-out: MIC) | MIC (Serratia marcescens; Serratia marcescens, isolate 16—K1357, read-out: MIC) | MIC (Serratia marcescens; Serratia marcescens, isolate 18—K1327, read-out: MIC) | MIC (Serratia marcescens; Serratia marcescens, isolate 19—K1321, read-out: MIC) | MIC (Serratia marcescens; Serratia marcescens, isolate 20—K1315, read-out: MIC) | MIC (Serratia marcescens; Serratia marcescens, isolate 21—K1306, read-out: MIC) | MIC (Serratia marcescens; Serratia marcescens, isolate 22—K1290, read-out: MIC) | MIC (Serratia marcescens; Serratia marcescens, isolate 23—K1265, read-out: MIC) | MIC (Serratia marcescens; Serratia marcescens, isolate 24—K1263, read-out: MIC) | MIC (Serratia marcescens; Serratia marcescens, isolate 25—K1239, read-out: MIC) | MIC (Pseudomonas aeruginosa; Pseudomonas aeruginosa, isolate 7—K1564, read-out: MIC)
8 to 256 µg/mL: Range of MICs (Serratia marcescens; [1]) | Range of MICs (Serratia marcescens; n=25 per group)
256 µg/mL: MIC50 (Serratia marcescens; 25 isolates, Row 13, >128 was Replaced with 256) | MIC90 (Serratia marcescens; 25 isolates, Row 22, >128 was Replaced with 256) | MIC (Serratia marcescens; Serratia marcescens, n=25 per group, read-out: Median MIC) | MIC50 (Serratia marcescens; Serratia marcescens, 25 isolates, Summary of Results, >128 was Replaced with 256, read-out: MIC50) | MIC90 (Serratia marcescens; Serratia marcescens, 25 isolates, Summary of Results, >128 was Replaced with 256, read-out: MIC90) | MIC (Serratia marcescens; Serratia marcescens, 25 isolates, Summary of Results, >128 was Replaced with 256, read-out: Median MIC) | MIC50 (Serratia marcescens; n=25 per group) | MIC90 (Serratia marcescens; n=25 per group)
8 µg/mL: MIC (Serratia marcescens; Serratia marcescens, isolate 15—K1402, read-out: MIC)
4 to 256 µg/mL: Range of MICs (Pseudomonas aeruginosa; [1]) | Range of MICs (Pseudomonas aeruginosa; n=25 per group)
128 µg/mL: MIC (Serratia marcescens; Serratia marcescens, 25 ocular isolates, read-out: Median MIC) | MIC (Serratia marcescens; Serratia marcescens, isolate 13—K1461, read-out: MIC) | MIC (Pseudomonas aeruginosa; Pseudomonas aeruginosa, isolate 5—K1651, read-out: MIC) | MIC (Pseudomonas aeruginosa; Pseudomonas aeruginosa, isolate 9—K1634, read-out: MIC) | MIC (Pseudomonas aeruginosa; Pseudomonas aeruginosa, isolate 15—K1626, read-out: MIC) | MIC (Pseudomonas aeruginosa; Pseudomonas aeruginosa, isolate 17—K1562, read-out: MIC) | MIC (Pseudomonas aeruginosa; Pseudomonas aeruginosa, isolate 19—K1553, read-out: MIC) | MIC (Pseudomonas aeruginosa; Pseudomonas aeruginosa, isolate 21—K1588, read-out: MIC) | MIC (Pseudomonas aeruginosa; Pseudomonas aeruginosa, isolate 22—K1554, read-out: MIC) | MIC (Pseudomonas aeruginosa; Pseudomonas aeruginosa, isolate 25—K1576, read-out: MIC) | MIC90 (Pseudomonas aeruginosa; Pseudomonas aeruginosa, 25 isolates, Summary of Results, read-out: MIC90) | MIC90 (Pseudomonas aeruginosa; n=25 per group)
